Data on 1 substance can be found in patent US11090410B2 (priority 2011, dated 2021).

The assay concerns acetylcholine receptor clustering in C2C12 mouse myoblast cell line. The format is cell-based. The conditions noted are these: for acetylcholine receptor clustering behavior: C2C12 cells on fibrin hydrogels, 5 days of treatment or beyond.

“Also recorded” adds a separate entry of the source. Like-named read-outs stand apart in the source and are kept apart here.

As for “beads covalently linked to agrin: polystyrene microparticles with agrin linked to the surface using EDAC/sulfo-NHS covalent crosslinking chemistry”, the “acetylcholine receptor clustering behavior” value is recorded as “induction of clustering behavior; also recorded: Clustering behavior was verified at areas of contact”. Where the note is “listed as agrin-delivering microparticles”, the “acetylcholine receptor clustering behavior” value is listed as “formation of AChR clusters”. The “agrin delivery over longer time periods” value (e.g., 5 or more days) is given as “enabled agrin delivery over longer time periods”.
